Assay results as given in patent US20230270713A1, “Administration of Resiniferatoxin For Treatment of Bladder Pain or Bladder Cancer” (Sorrento Therapeutics, Inc., priority 2020, published 2023).
“And” between values parts separate entries of the source, which are not always exact repeats. Identical values can stand only once. Like-named read-outs stand apart in the source and are kept apart here.

Assay: Pharmacokinetic/toxicokinetic profile of RTX after intravesical instillation in dogs
Format: in vivo, dog
Method: Local tolerance and the pharmacokinetic (PK), and toxicokinetic (TK) profile of RTX in dogs was determined after a single instillation of RTX into the bladder of dogs (n=6). The RTX formulations were prepared using aseptic techniques in a biological safety cabinet (BSC) by mixing the appropriate amount of diluent with the appropriate amount of RTX. Dosing formulation concentrations used were 1 and 10 mcg/mL.
Three male and three female dogs ranging in weight from 5.95 to 8.60 kg were used in the study. The dogs were assigned into Group 1 (receiving a dose of 1 mcg/mL RTX) or Group 2 (receiving a dose of 10 mcg/mL RTX) as shown in the Table 3 below.
RTX was administered via intravesical instillation into the urinary bladder. The animals were given a single dose of 25 or 250 mcg/dose in a total volume of 25 mL on Day 1 over a period of 1 hour (±5 minutes). RTX and diluent were administered to the dogs under general anesthesia via a Foley catheter placed into the bladder for 1 hour (±5 minutes).
Blood samples were collected from all animals on Day 1 pre-dose and at 0.5, 1, 2, 4, 6, 12, 24, 36, 48, 60, and 72 hours post-dose. The toxicokinetic (TK) parameters were determined for RTX, and if appropriate, the metabolites, from mean concentration-time data.
Cmax is the observed maximum plasma concentration from the start of dosing. Tmax is the time to reach the Cmax. AUC(0-T) is the area under the plasma concentration-time curve from time zero to the last measurable time point calculated by the linear trapezoidal rule.

[1] = female dogs 1004, 1006 individual, 250 mcg intravesical
[2] = female dogs, 250 mcg intravesical

Compound: C=C(C)[C@]12C[C@@H](C)[C@@]34O[C@](Cc5ccccc5)(O[C@@H]1[C@@H]3C=C(COC(=O)Cc1ccc(O)c(OC)c1)C[C@]1(O)C(=O)C(C)=C[C@@H]41)O2 [RTX, resiniferatoxin]
- concentration at 2 h (both sexes, dog, plasma, other: intravesical instillation, 25 mcg, Group 1 dogs, 25 mL at 1 mcg/mL (25 mcg/dose), 2 hours post-dosing, male and female dog, read-out: plasma concentrations for RTX): < 0.05 ng/mL
- AUC(0-T) Ratio (Male/Female) (dogs, 250 mcg intravesical): 1.23
- Cmax Ratio (Male/Female) (dogs, 250 mcg intravesical): 1.28
- RTX exposure in males compared with females (dogs, 250 mcg intravesical): similar
- Plasma concentration of RTX (female dog 1002, 25 mcg intravesical, 2 h): BQL (*BQL—Below quantifiable limit (<50.0 pg/mL); adequate signal-to-noise enabled reporting value as estimate)
- Plasma concentration of RTX (female dog 1002, 25 mcg intravesical, 4 h): BQL (*BQL—Below quantifiable limit (<50.0 pg/mL); adequate signal-to-noise enabled reporting value as estimate)
- Plasma concentration of RTX (female dog 1002, 25 mcg intravesical, 6 h): BQL (*BQL—Below quantifiable limit (<50.0 pg/mL); adequate signal-to-noise enabled reporting value as estimate)
- Plasma concentration of RTX (female dog 1002, 25 mcg intravesical, 12 h): BQL (*BQL—Below quantifiable limit (<50.0 pg/mL); adequate signal-to-noise enabled reporting value as estimate)
- Plasma concentration of RTX (female dog 1002, 25 mcg intravesical, 24 h): BQL (*BQL—Below quantifiable limit (<50.0 pg/mL); adequate signal-to-noise enabled reporting value as estimate)
- Plasma concentration of RTX (female dog 1002, 25 mcg intravesical, 36 h): BQL (*BQL—Below quantifiable limit (<50.0 pg/mL); adequate signal-to-noise enabled reporting value as estimate)
- Plasma concentration of RTX (female dog 1002, 25 mcg intravesical, 48 h): BQL (*BQL—Below quantifiable limit (<50.0 pg/mL); adequate signal-to-noise enabled reporting value as estimate)
- Plasma concentration of RTX (female dog 1002, 25 mcg intravesical, 60 h): BQL (*BQL—Below quantifiable limit (<50.0 pg/mL); adequate signal-to-noise enabled reporting value as estimate)
- Plasma concentration of RTX (female dog 1002, 25 mcg intravesical, 72 h): BQL (*BQL—Below quantifiable limit (<50.0 pg/mL); adequate signal-to-noise enabled reporting value as estimate)
- Plasma concentration of RTX (female dog 1002, 25 mcg intravesical, Predose): BQL (*BQL—Below quantifiable limit (<50.0 pg/mL); adequate signal-to-noise enabled reporting value as estimate)
- AUC(0-T) [1]: 0.441 ng·h/mL and 0.146 ng·h/mL
- AUC(0-T)/Dose [1]: 1.76 pg·h/mL/µg and 0.584 pg·h/mL/µg
- Cmax [1]: 0.388 ng/mL and 0.16 ng/mL
- Cmax/Dose [1]: 1.55 pg/mL/µg and 0.640 pg/mL/µg
- Plasma concentration of RTX (female dogs 1004, 1006 individual, 250 mcg intravesical, 0.5 h): 0.388 ng/mL and 0 ng/mL
- Plasma concentration of RTX (female dogs 1004, 1006 individual, 250 mcg intravesical, 1 h): 0.16 ng/mL
- Plasma concentration of RTX (female dogs 1004, 1006 individual, 250 mcg intravesical, 2 h): 0.0511 ng/mL
- Plasma concentration of RTX (female dogs 1004, 1006 individual, 250 mcg intravesical, 4 h): 0 ng/mL
- Plasma concentration of RTX (female dogs 1004, 1006 individual, 250 mcg intravesical, 6 h): 0 ng/mL
- Plasma concentration of RTX (female dogs 1004, 1006 individual, 250 mcg intravesical, 12 h): 0 ng/mL
- Plasma concentration of RTX (female dogs 1004, 1006 individual, 250 mcg intravesical, 24 h): 0 ng/mL
- Plasma concentration of RTX (female dogs 1004, 1006 individual, 250 mcg intravesical, 36 h): 0 ng/mL
- Plasma concentration of RTX (female dogs 1004, 1006 individual, 250 mcg intravesical, 48 h): 0 ng/mL
- Plasma concentration of RTX (female dogs 1004, 1006 individual, 250 mcg intravesical, 60 h): 0 ng/mL
- Plasma concentration of RTX (female dogs 1004, 1006 individual, 250 mcg intravesical, 72 h): 0 ng/mL
- Plasma concentration of RTX (female dogs 1004, 1006 individual, 250 mcg intravesical, Predose): 0 ng/mL
- AUC(0-T)/Dose, Mean [2]: 1.18 pg·h/mL/µg
- Cmax/Dose, Mean [2]: 1.10 pg/mL/µg
- Plasma concentration of RTX, Mean (female dogs, 250 mcg intravesical, Predose): 0 ng/mL
- Tmax (female, dog, plasma, 250 ug, female dogs 1004, 1006 individual, 250 mcg intravesical, read-out: Tmax): 30 min
- Tmax (female, dog, plasma, 250 ug, female dogs, 250 mcg intravesical, read-out: Tmax, Mean): 45 ± 21.2 min
- concentration at 60 h (female, dog, plasma, other: intravesical instillation into the urinary bladder, 250 mcg, female dogs 1004, 1006 individual, 250 mcg intravesical, 60 h, read-out: Plasma concentration of RTX): 0 ng/mL
- concentration at 72 h (female, dog, plasma, other: intravesical instillation into the urinary bladder, 250 mcg, female dogs 1004, 1006 individual, 250 mcg intravesical, 72 h, read-out: Plasma concentration of RTX): 0 ng/mL
- concentration at 0.5 h (female, dog, plasma, other: intravesical instillation into the urinary bladder, 250 mcg, female dogs, 250 mcg intravesical, 0.5 h, read-out: Plasma concentration of RTX, Mean): 0.194 ng/mL
- concentration at 60 h (female, dog, plasma, other: intravesical instillation into the urinary bladder, 250 mcg, female dogs, 250 mcg intravesical, 60 h, read-out: Plasma concentration of RTX, Mean): 0 ng/mL
- concentration at 72 h (female, dog, plasma, other: intravesical instillation into the urinary bladder, 250 mcg, female dogs, 250 mcg intravesical, 72 h, read-out: Plasma concentration of RTX, Mean): 0 ng/mL
- AUC(0-t) (female, dog, plasma, other: intravesical instillation, 250 ug, female dogs, 250 mcg intravesical, read-out: AUC(0-T), Mean): 0.294 ± 0.209 ng·h/mL
- Cmax (female, dog, plasma, other: intravesical instillation, 250 ug, female dogs, 250 mcg intravesical, read-out: Cmax, Mean): 0.274 ± 0.161 ng/mL
- Tmax (female, dog, plasma, other: intravesical instillation, 250 ug, female dogs, 250 mcg intravesical, read-out: Tmax, Mean): 45 min
- concentration at 0.5 h (female, dog, plasma, other: intravesical instillation, 25 mcg, female dog 1002, 25 mcg intravesical, 0.5 h, read-out: Plasma concentration of RTX): 0.0392 ng/mL
- concentration at 1 h (female, dog, plasma, other: intravesical instillation, 25 mcg, female dog 1002, 25 mcg intravesical, 1 h, read-out: Plasma concentration of RTX): 0.0203 ng/mL
- concentration at 1 h (female, dog, plasma, other: intravesical instillation, 250 mcg, female dogs 1004, 1006 individual, 250 mcg intravesical, 1 h, read-out: Plasma concentration of RTX): 0.289 ng/mL
- concentration at 2 h (female, dog, plasma, other: intravesical instillation, 250 mcg, female dogs 1004, 1006 individual, 250 mcg intravesical, 2 h, read-out: Plasma concentration of RTX): 0.0602 ng/mL
- concentration at 4 h (female, dog, plasma, other: intravesical instillation, 250 mcg, female dogs 1004, 1006 individual, 250 mcg intravesical, 4 h, read-out: Plasma concentration of RTX): 0 ng/mL
- concentration at 6 h (female, dog, plasma, other: intravesical instillation, 250 mcg, female dogs 1004, 1006 individual, 250 mcg intravesical, 6 h, read-out: Plasma concentration of RTX): 0 ng/mL
- concentration at 12 h (female, dog, plasma, other: intravesical instillation, 250 mcg, female dogs 1004, 1006 individual, 250 mcg intravesical, 12 h, read-out: Plasma concentration of RTX): 0 ng/mL
- concentration at 24 h (female, dog, plasma, other: intravesical instillation, 250 mcg, female dogs 1004, 1006 individual, 250 mcg intravesical, 24 h, read-out: Plasma concentration of RTX): 0 ng/mL
- concentration at 36 h (female, dog, plasma, other: intravesical instillation, 250 mcg, female dogs 1004, 1006 individual, 250 mcg intravesical, 36 h, read-out: Plasma concentration of RTX): 0 ng/mL
- concentration at 48 h (female, dog, plasma, other: intravesical instillation, 250 mcg, female dogs 1004, 1006 individual, 250 mcg intravesical, 48 h, read-out: Plasma concentration of RTX): 0 ng/mL
- concentration at 1 h (female, dog, plasma, other: intravesical instillation, 250 mcg, female dogs, 250 mcg intravesical, 1 h, read-out: Plasma concentration of RTX, Mean): 0.225 ng/mL
- concentration at 2 h (female, dog, plasma, other: intravesical instillation, 250 mcg, female dogs, 250 mcg intravesical, 2 h, read-out: Plasma concentration of RTX, Mean): 0.0557 ng/mL
- concentration at 4 h (female, dog, plasma, other: intravesical instillation, 250 mcg, female dogs, 250 mcg intravesical, 4 h, read-out: Plasma concentration of RTX, Mean): 0 ng/mL
- concentration at 6 h (female, dog, plasma, other: intravesical instillation, 250 mcg, female dogs, 250 mcg intravesical, 6 h, read-out: Plasma concentration of RTX, Mean): 0 ng/mL
- concentration at 12 h (female, dog, plasma, other: intravesical instillation, 250 mcg, female dogs, 250 mcg intravesical, 12 h, read-out: Plasma concentration of RTX, Mean): 0 ng/mL
- concentration at 24 h (female, dog, plasma, other: intravesical instillation, 250 mcg, female dogs, 250 mcg intravesical, 24 h, read-out: Plasma concentration of RTX, Mean): 0 ng/mL
- concentration at 36 h (female, dog, plasma, other: intravesical instillation, 250 mcg, female dogs, 250 mcg intravesical, 36 h, read-out: Plasma concentration of RTX, Mean): 0 ng/mL
- concentration at 48 h (female, dog, plasma, other: intravesical instillation, 250 mcg, female dogs, 250 mcg intravesical, 48 h, read-out: Plasma concentration of RTX, Mean): 0 ng/mL
- time by which RTX plasma concentrations fell to zero (male and female dogs, 250 mcg, post-dose): ≤ 4 h
- absorption into the systemic circulation (male and female dogs, single 250 mcg intravesical instillation): absorbed rapidly
